“Also recorded” adds a separate entry of the source.
How the values were obtained:
NOD mice = test: Diabetes prevention study in NOD mice; details: 80 mg/kg/day i.p. 5 days per week from 4 to 21 weeks of age; p<0.001 vs PBS controls
[1] = system: I-A^g7 congenic splenocytes; test: IL-10 ELISPOT, splenocytes from C57BL/6 mice congenic for I-A^g7; format: cell-based; details: C57BL/6 congenic for I-A^g7
Text: (§1) Balb/c mice have I-A^d as their class II antigen presenting molecule. I-A^d is structurally similar to I-A^g7 of the NOD, with both strains having identical I-A alpha chains (17 amino acid differences in the I-A beta chains). C57BL/6 mice have I-A^b as their class II antigen presenting molecule. Both strains lack the basic pocket 9 in the peptide binding groove.

NOD mice splenocytes = test: Ex vivo ELISPOT of splenocytes from NOD mice treated in vivo; details: 80 mg/kg/day intraperitoneal for 5 days, 10 week old female NOD mice; vs PBS
BDC 12-4.1 splenocytes = test: ELISPOT and supernatant cytokines, transgenic BDC 12-4.1 Rag−/− mouse splenocytes; format: cell-based
Method: Number of spots for each well is shown in the upper left hand corner.
The in vitro response of a monoclonal T cell population targeted to the B:9-23 peptide (rather than hybridomas) was evaluated by enzyme-linked immunospot (ELISPOT). […] Stimulation without the addition of B:9-23 peptide was unexpected and could be due to in vivo insulin peptide-MHC complexes present in the spleen. As shown in panel d of FIG. 3, both IL-10 (FIG. 3c) and IFN-γ (FIG. 3d) were quantified in the supernatant of stimulated splenocytes.

I-A^g7 = test: Direct binding of biotinylated insulin B:9-23 peptide to purified I-A^g7; set-up: species or system mouse; details: 500 nM; increasing biotinylated B:9-23; 2 h and 24 h
T cell hybridoma 8-1.1α1 = T cell hybridoma 8-1.1α1 response to B:9-23 peptide presented by I-A^g7; format: cell-based, mouse
Text: B:9-23 peptide and small molecule binding to panel a) T cell hybridoma 8-1.1α1, panel b) hybridoma BDC 12-4.1, and panel c) hybridoma BDC 12-4.4. […] Dotted line is at the stimulation index of the B:9-23 peptide. TT=tetanus toxin (negative control peptide).
TT=tetanus toxin (negative control peptide). B:19(A)=substitution of the native cysteine for alanine at position 19 in B:9-23. […] Results are given as a stimulation index (SI) from triplicate cultures+s.e.m. The data are representative of at least three independent experiments. […] The figure is representative of three independent experiments.
The top 40 scoring compounds (shown in Table 1) were screened for their ability to alter anti-B:9-23 T cell responses to three different T cell hybridomas, all with the dominant conserved Vα5D-4 TCR element but different CDR3α, Jα, and TCRβ chains. […] The same assays evaluating hybridoma response were performed using 40 random compounds from the NCI/DTP repository.

C57BL/6 splenocytes = test: IL-10 ELISPOT, C57BL/6 splenocytes (I-A^b); format: cell-based, C57BL/6 mice; details: C57BL/6, I-A^b
Text: as §1

BDC 2.5 T cell hybridoma = BDC 2.5 T cell hybridoma response to chromogranin peptide mimotope presented by I-A^g7; format: cell-based, mouse; details: chromogranin peptide mimotope presented by I-A^g7 (FIG. 2d)
Balb/c splenocytes = test: IL-10 ELISPOT, Balb/c splenocytes (I-A^d); format: cell-based, Balb/c mice
Text: as §1

NOD splenocytes = test: IL-10 ELISPOT, in vitro culture of NOD splenocytes; details: stimulated with glyphosine and B:9-23 peptide

Question: What does the source list for `O=C(O)CN(CP(=O)(O)O)CP(=O)(O)O` [Glyphosine, N,N-bis(phosphonomethyl)glycine]?
Answer: development of diabetes (NOD mice): Prevention of diabetes occurred as long as therapy was administered; IL-10 ELISPOT response to compound plus B:9-23 peptide [1]: responded; ex vivo IFN-γ ELISPOT (NOD mice splenocytes): no change in IFN-γ; ex vivo IL-10 ELISPOT (NOD mice splenocytes): upregulation of IL-10; IFN-γ positive cells (ELISPOT) (BDC 12-4.1 splenocytes; in vitro, 500 nM): much smaller increase in IFN-γ positive cells; IL-10 positive cells (ELISPOT) (BDC 12-4.1 splenocytes; in vitro, 500 nM, with and without B:9-23 peptide): dramatically enhances IL-10 positive cells; IFN-γ levels in supernatant (BDC 12-4.1 splenocytes; with B:9-23 peptide, compared to peptide alone): not increased; also recorded: decreases IFN-γ levels; B:9-23 peptide binding to empty I-A^g7 (I-A^g7): directly enhance B:9-23 peptide binding; TCR stimulation with other modified B:9-23 insulin peptides (T cell hybridoma 8-1.1α1; FIG. 2c): enhanced TCR stimulation; EC50 (T cell hybridoma 8-1.1α1; Mus musculus, T-cell, with B:9-23 peptide (FIG. 2b), read-out: EC50 concentration, enhancement of TCR stimulation): 70.6 nM; maximal stimulatory effect, fold greater than peptide alone (T cell hybridoma 8-1.1α1; at 500 nM): approximately 2.5 fold; concentration of maximal stimulatory effect (T cell hybridoma 8-1.1α1; with B:9-23 peptide): 500 nM; lowest concentration at which an effect was seen (T cell hybridoma 8-1.1α1; with B:9-23 peptide (FIG. 2b)): 10 nM; TCR stimulation, dependence on peptide (T cell hybridoma 8-1.1α1; with vs without B:9-23 peptide (FIG. 2b)): modulated TCR stimulation only when peptide is present; IL-10 ELISPOT response to compound plus B:9-23 peptide (C57BL/6 splenocytes): failed to respond; peptide stimulation of BDC 2.5 hybridoma (BDC 2.5 T cell hybridoma): did not enhance peptide stimulation; IL-10 ELISPOT response to compound plus B:9-23 peptide (Balb/c splenocytes): failed to respond; IL-10 producing cells (ELISPOT) (NOD splenocytes): three- to four-fold increase
